# In ChEMBL document CHEMBL5576074, “[1,2,4]Triazolo[1,5-a]pyrimidine derivatives: Structure-activity relationship study leading to highly selective ENPP1 inhibitors” (Bioorg Med Chem Lett, 2024):
# Tests used:
# [1] = molecular target: T1, Ectonucleotide pyrophosphatase/phosphodiesterase family member 1 (Homo sapiens, UniProt P22413); assay: Inhibition of ENPP1 (unknown origin) assessed as reduction in ATP hydrolysis by AMP-Glo assay
# T1 sequence (P22413 whole entry): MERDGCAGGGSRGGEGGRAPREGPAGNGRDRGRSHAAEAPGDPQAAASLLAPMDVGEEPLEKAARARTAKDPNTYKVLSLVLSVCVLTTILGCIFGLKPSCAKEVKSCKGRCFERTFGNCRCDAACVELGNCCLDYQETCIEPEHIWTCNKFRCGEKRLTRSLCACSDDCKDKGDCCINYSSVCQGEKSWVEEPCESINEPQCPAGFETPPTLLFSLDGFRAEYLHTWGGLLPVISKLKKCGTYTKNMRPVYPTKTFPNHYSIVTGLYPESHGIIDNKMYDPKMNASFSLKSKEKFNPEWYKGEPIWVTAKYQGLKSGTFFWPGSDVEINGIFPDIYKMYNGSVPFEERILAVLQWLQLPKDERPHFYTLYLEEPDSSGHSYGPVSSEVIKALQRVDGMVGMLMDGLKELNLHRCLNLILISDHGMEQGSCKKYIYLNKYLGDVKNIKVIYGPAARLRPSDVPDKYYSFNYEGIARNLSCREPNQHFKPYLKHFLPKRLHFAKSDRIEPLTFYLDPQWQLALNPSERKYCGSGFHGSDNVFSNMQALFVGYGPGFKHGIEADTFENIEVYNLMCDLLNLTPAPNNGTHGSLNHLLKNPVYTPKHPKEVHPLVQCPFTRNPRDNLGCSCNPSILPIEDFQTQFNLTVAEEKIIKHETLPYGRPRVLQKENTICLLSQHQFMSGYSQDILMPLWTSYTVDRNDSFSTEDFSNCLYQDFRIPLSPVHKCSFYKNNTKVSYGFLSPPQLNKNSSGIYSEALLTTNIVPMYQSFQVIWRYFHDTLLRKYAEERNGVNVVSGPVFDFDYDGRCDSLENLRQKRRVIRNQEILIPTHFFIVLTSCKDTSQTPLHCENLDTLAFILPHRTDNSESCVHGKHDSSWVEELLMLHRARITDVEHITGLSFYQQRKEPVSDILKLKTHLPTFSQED
# [2] = molecular target: T1, Ectonucleotide pyrophosphatase/phosphodiesterase family member 1; assay: Inhibition of ENPP1 (unknown origin) assessed as reduction in 2'3'-cGAMP hydrolysis by AMP-Glo assay
# [3] = tested on: THP1-Dual; assay: Cytotoxicity against human THP1-Dual cells upto 50 uM; type: toxicity, cell-based
# [4] = molecular target: T2, Ectonucleotide pyrophosphatase/phosphodiesterase family member 3 (Homo sapiens) (UniProt O14638); assay: Inhibition of ENPP3 (unknown origin) assessed as reduction in ATP hydrolysis at 50 uM by AMP-Glo assay relative to control
# T2 sequence (whole entry): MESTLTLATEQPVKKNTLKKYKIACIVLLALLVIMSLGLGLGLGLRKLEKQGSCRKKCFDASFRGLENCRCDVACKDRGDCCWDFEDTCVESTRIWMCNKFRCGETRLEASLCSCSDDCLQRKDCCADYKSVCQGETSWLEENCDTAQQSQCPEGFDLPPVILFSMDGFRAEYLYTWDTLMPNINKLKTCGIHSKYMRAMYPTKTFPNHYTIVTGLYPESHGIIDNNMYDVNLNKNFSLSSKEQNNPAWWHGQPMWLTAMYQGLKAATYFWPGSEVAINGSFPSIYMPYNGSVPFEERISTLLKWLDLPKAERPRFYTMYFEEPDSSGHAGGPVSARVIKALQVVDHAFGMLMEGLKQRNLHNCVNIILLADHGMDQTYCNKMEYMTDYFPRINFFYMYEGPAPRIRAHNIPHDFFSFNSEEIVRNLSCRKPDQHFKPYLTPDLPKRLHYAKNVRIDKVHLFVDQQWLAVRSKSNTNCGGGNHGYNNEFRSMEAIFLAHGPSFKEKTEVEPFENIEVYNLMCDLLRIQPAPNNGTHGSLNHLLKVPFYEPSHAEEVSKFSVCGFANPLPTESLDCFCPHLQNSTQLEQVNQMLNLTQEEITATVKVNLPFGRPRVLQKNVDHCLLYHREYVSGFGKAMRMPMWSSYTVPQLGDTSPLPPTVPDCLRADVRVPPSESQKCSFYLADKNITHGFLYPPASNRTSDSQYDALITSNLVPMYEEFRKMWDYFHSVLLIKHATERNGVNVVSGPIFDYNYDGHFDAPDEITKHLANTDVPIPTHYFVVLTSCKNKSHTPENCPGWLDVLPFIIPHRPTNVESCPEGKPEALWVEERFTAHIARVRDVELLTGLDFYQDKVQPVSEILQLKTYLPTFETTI
# [5] = molecular target: T3, Ectonucleotide pyrophosphatase/phosphodiesterase family member 3 (Homo sapiens, UniProt O14638); assay: Inhibition of ENPP3 (unknown origin) assessed as reduction in 2'3'-cGAMP hydrolysis by AMP-Glo assay
# T3 sequence (O14638 whole entry): T2 sequence (whole entry)
# [6] = molecular target: T3, Ectonucleotide pyrophosphatase/phosphodiesterase family member 3; assay: Inhibition of ENPP3 (unknown origin) assessed as reduction in ATP hydrolysis by AMP-Glo assay
# [7] = molecular target: T4, Glycerophosphocholine cholinephosphodiesterase ENPP6 (Homo sapiens) (UniProt Q6UWR7); assay: Inhibition of ENPP6 (unknown origin) at 50 uM relative to control
# T4 sequence (whole entry): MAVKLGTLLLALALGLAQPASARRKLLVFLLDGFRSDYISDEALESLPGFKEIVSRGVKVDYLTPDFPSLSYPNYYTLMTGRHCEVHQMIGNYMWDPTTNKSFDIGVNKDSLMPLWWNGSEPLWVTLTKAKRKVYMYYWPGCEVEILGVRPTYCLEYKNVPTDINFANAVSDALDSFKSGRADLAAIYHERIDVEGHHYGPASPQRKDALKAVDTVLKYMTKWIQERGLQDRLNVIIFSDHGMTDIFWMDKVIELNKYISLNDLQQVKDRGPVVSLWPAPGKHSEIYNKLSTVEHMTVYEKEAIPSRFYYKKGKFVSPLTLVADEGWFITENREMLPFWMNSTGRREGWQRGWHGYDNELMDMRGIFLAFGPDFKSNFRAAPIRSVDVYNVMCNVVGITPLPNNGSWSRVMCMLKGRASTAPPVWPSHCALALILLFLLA
# [8] = molecular target: T5, Autotaxin (Homo sapiens, UniProt Q13822); assay: Inhibition of ENPP2 (unknown origin)
# [9] = molecular target: T6, Glycerophosphocholine cholinephosphodiesterase ENPP6 (Homo sapiens, UniProt Q6UWR7); assay: Inhibition of ENPP6 (unknown origin)
# T6 sequence (Q6UWR7 whole entry): T4 sequence (whole entry)
# [10] = molecular target: T3, Ectonucleotide pyrophosphatase/phosphodiesterase family member 3; assay: Inhibition of ENPP3 (unknown origin)
# [11] = molecular target: T1, Ectonucleotide pyrophosphatase/phosphodiesterase family member 1; assay: Inhibition of ENPP1 (unknown origin)
# [12] = molecular target: T2, Ectonucleotide pyrophosphatase/phosphodiesterase family member 3 (Homo sapiens); assay: Inhibition of ENPP3 (unknown origin) at 50 uM relative to control
# [13] = molecular target: T2, Ectonucleotide pyrophosphatase/phosphodiesterase family member 3 (Homo sapiens); assay: Inhibition of ENPP3 (unknown origin) assessed as reduction in 2'3'-cGAMP hydrolysis at 50 uM by AMP-Glo assay relative to control
# [14] = Cytotoxicity against human HepG2-Dual cells upto 50 uM; type: toxicity, cell-based; conditions: hepg2, 50 µM
# [15] = molecular target: T5, Autotaxin; assay: Inhibition of ENPP2 (unknown origin) at 50 uM relative to control
# [16] = molecular target: T2, Ectonucleotide pyrophosphatase/phosphodiesterase family member 3 (Homo sapiens); assay: Inhibition of ENPP3 (unknown origin) at 10 uM relative to control
SMILES,IC50 [1] [µM],IC50 [2] [µM],inhibition [4] [%],IC50 [5] [µM],IC50 [6] [µM],inhibition [7] [%],IC50 [8] [µM],IC50 [9] [µM],IC50 [10] [µM],IC50 [11] [µM],inhibition [12] [%],inhibition [13] [%],inhibition [15] [%],inhibition [16] [%],Activity [3],Activity [14]
Cc1nc2ncnn2c(N(C)C)c1Cc1cccc(N)c1,0.85,0.82,4.2,> 50,> 50,< 1,> 50,> 50,> 50,0.26,24,2.2,11,–,Non-Toxic,Non-Toxic
Cc1nc2ncnn2c(N2CCCCCC2)c1Cc1ccccc1,–,–,–,–,–,–,–,–,–,–,–,–,–,5,–,–
Cc1nc2ncnn2c(N2CCC(C)CC2)c1Cc1ccccc1,–,–,–,–,–,–,–,–,–,–,–,–,–,2,–,–
CCc1nc2ncnn2c(N(CC)Cc2ccccc2)c1Cc1ccccc1,–,–,–,–,–,–,–,–,–,–,–,–,–,2,–,–
Cc1nc2ncnn2c(NCc2ccc(C(=O)O)cc2)c1Cc1cccc(N)c1,8.6,9,1.6,> 50,> 50,< 1,> 50,> 50,> 50,1.1,33,< 1,8.9,–,Non-Toxic,Non-Toxic
Cc1nc2ncnn2c(N(C)C)c1Cc1cccc(O)c1,1.8,1.4,< 1,> 50,> 50,< 1,> 50,> 50,> 50,0.42,24,< 1,31,–,Non-Toxic,Non-Toxic
Cc1nc2ncnn2c(N(C)C)c1Cc1cccc(F)c1,–,–,–,–,–,< 1,> 50,> 50,> 50,1.5,6.3,–,14,–,–,–
CC(=O)Nc1ccc(Cc2c(C)nc3ncnn3c2N(C)C)cc1,–,–,–,–,–,2.3,> 50,> 50,> 50,4.9,8.5,–,5.1,–,–,–
Cc1nc2ncnn2c(N(C)C)c1Cc1ccccc1Cl,–,–,–,–,–,< 1,> 50,> 50,> 50,2.5,3,–,15,–,–,–
Cc1nc2ncnn2c(NCc2cccnc2)c1Cc1cccc(N)c1,–,–,–,–,–,< 1,> 50,> 50,> 50,7,12,–,< 1,–,–,–

# Now from value to compound, other results behind:
IC50 [1] [µM],IC50 [2] [µM],inhibition [4] [%],IC50 [5] [µM],IC50 [6] [µM],inhibition [7] [%],IC50 [8] [µM],IC50 [9] [µM],IC50 [10] [µM],IC50 [11] [µM],inhibition [12] [%],inhibition [13] [%],inhibition [15] [%],inhibition [16] [%],SMILES,Activity [3],Activity [14]
–,–,–,–,–,–,–,–,–,–,–,–,–,16,Cc1nc2ncnn2c(N2CCCC2)c1Cc1ccccc1,–,–
–,–,–,–,–,3.8,> 50,> 50,> 50,32,5.2,–,12,–,CCCNc1c(Cc2ccccc2)c(C)nc2ncnn12,–,–
–,–,7.5,> 50,> 50,< 1,> 50,> 50,> 50,0.74,6.3,< 1,31,19,Cc1nc2ncnn2c(N(C)C)c1Cc1ccccc1,–,–
–,–,–,–,–,< 1,> 50,> 50,> 50,> 30,4.3,–,< 1,–,Cc1nc2ncnn2c(NCCO)c1Cc1ccccc1,–,–
–,–,–,–,–,< 1,> 50,> 50,> 50,22,7,–,7.8,–,CCNc1c(Cc2ccccc2)c(C)nc2ncnn12,–,–
–,–,–,–,–,–,–,–,–,–,–,–,–,1,Cc1nc2ncnn2c(N2CCCCC2)c1Cc1ccccc1,–,–
